The results in this text go back to BindingDB's records for doi:10.1021/jm970615f (Parke-Davis Pharmaceutical Research, 1997).

The structures appear in SMILES notation.

For the first assay, the target named is T1, Dimer of Gag-Pol polyprotein [489-587] (Human immunodeficiency virus 1, UniProt P12497).
T1 construct: 489-587
The experiment in a line: Protease Inhibition Assay.
Settings: not given
How it is done:
For determination of IC50 values, HIV-1 protease was added to assay buffer containing inhibitor and the substrate (H-His-Lys-Ala-Arg-Val-Leu- (p-NO2) Phe-Glu-Ala-norleucine-Ser-NH2). The Leu- (p-NO2) Phe bond of the substrate was cleaved by the enzyme, and the substrate and products were separated by reversed-phase HPLC. Absorbance was measured at 220 nm, peak areas were determined, and percentage conversion to product was calculated.
In the case of `O=C1CC2(CCCc3ccccc32)OC(=O)C1SCCc1ccccc1` (stereo not drawn) [3,4-Dihydro-4-hydroxy-5-[(2-phenylethyl)thio]-spiro[naphthalene-1(2H),2-[2H]pyran]-6 (3 H)-one], the midpoint of inhibition, the IC50, lay at 1300 nM.

Consider `O=C1CC(c2ccccc2)(c2ccncc2)OC(=O)C1SCCc1ccccc1` (stereo not drawn) [5,6-Dihydro-4-hydroxy-6-phenyl-3-[(2-phenylethyl)thio]-6-pyridin-4-yl-2H-pyran-2-one], for which it took 790 nM to reach half-maximal inhibition (IC50). Still for that read-out and setting: under `Cc1ccc(C(C)(C)C)c(SC2C(=O)CC(c3ccccc3)(c3ccccc3)OC2=O)c1` (stereo not drawn) [3-[(2-tert-butyl-5-methylphenyl)sulfanyl]-4-hydroxy-6,6-diphenyl-5,6-dihydro-2H-pyran-2-one] stands 12 nM; under `CCC(C)c1ccccc1SC1C(=O)CC(c2ccccc2)(c2ccccc2)OC1=O` (stereo not drawn) [3-[(2-sec-Butylphenyl)sulfanyl]-5,6-dihydro-4-hydroxy-6,6-diphenyl-2H-pyran-2-one], 17 nM. The same measure, in the same setting: under `CC(C)c1ccccc1SC1C(=O)CC(CCc2ccccc2)(c2ccccc2)OC1=O` (stereo not drawn) [4-hydroxy-6-phenyl-6-(2-phenylethyl)-3-{[2-(propan-2-yl)phenyl]sulfanyl}-5,6-dihydro-2H-pyran-2-one] stands 14 nM; under `Cc1ccc(C(C)C)c(SC2C(=O)C[C@@](CCc3ccccc3)(c3ccccc3)OC2=O)c1` (stereo partly drawn) [(6S)-4-hydroxy-3-{[5-methyl-2-(propan-2-yl)phenyl]sulfanyl}-6-phenyl-6-(2-phenylethyl)-5,6-dihydro-2H-pyran-2-one], 6 nM. In the case of `O=C1CC(c2ccccc2)(c2ccccc2)OC(=O)C1Sc1ccccc1C1CCCC1` (stereo not drawn) [3-[(2-cyclopentylphenyl)sulfanyl]-4-hydroxy-6,6-diphenyl-5,6-dihydro-2H-pyran-2-one], the IC50 is 14 nM. For the molecule `Cc1ccc(C(C)C)c(SC2C(=O)CC(CCc3ccccc3)(c3ccccc3)OC2=O)c1` (stereo not drawn) [4-hydroxy-3-{[5-methyl-2-(propan-2-yl)phenyl]sulfanyl}-6-phenyl-6-(2-phenylethyl)-5,6-dihydro-2H-pyran-2-one], the concentration for half-maximal inhibition (IC50) worked out at 7 nM. On the same count and under the same terms, the figure for `CC(C)(C)c1ccccc1SC1C(=O)CC(CCc2ccccc2)(c2ccccc2)OC1=O` (stereo not drawn) [3-[(2-tert-butylphenyl)sulfanyl]-4-hydroxy-6-phenyl-6-(2-phenylethyl)-5,6-dihydro-2H-pyran-2-one] is 3 nM; for `Cc1ccccc1SC1C(=O)CC(CCc2ccccc2)(c2ccccc2)OC1=O` (stereo not drawn) [4-hydroxy-3-[(2-methylphenyl)sulfanyl]-6-phenyl-6-(2-phenylethyl)-5,6-dihydro-2H-pyran-2-one] it is 73 nM; for `CCC(C)c1ccccc1SC1C(=O)CC(CCc2ccccc2)(c2ccccc2)OC1=O` (stereo not drawn) [3-{[2-(butan-2-yl)phenyl]sulfanyl}-4-hydroxy-6-phenyl-6-(2-phenylethyl)-5,6-dihydro-2H-pyran-2-one] it is 10 nM. Turning to `NC(=O)CCCCC1(c2ccccc2)CC(=O)C(SCCc2ccccc2)C(=O)O1` (stereo not drawn) [5-{4-hydroxy-6-oxo-2-phenyl-5-[(2-phenylethyl)sulfanyl]-3,6-dihydro-2H-pyran-2-yl}pentanamide], the midpoint of inhibition, the IC50, lay at 338 nM.

Still in this assay, the particulars now being: pH 4.7; 37 °C.
Take `CCCCCCC1(c2ccccc2)CC(=O)C(SCCc2ccccc2)C(=O)O1` (stereo not drawn) [5,6-Dihydro-6-hexyl-4-hydroxy-6-phenyl-3-[(2-phenylethyl)thio]-2H-pyran-2-one]: half-maximal inhibition (IC50) required 112 nM. Same read-out and setting: under `O=C1CC(CCc2ccccc2)(c2ccccc2)OC(=O)C1SCCc1ccccc1` (stereo not drawn) [5,6-Dihydro-4-hydroxy-6-phenyl-6-(2-phenylethyl)-3-[(2-phenylethyl)thio]-2H-pyran-2-one] stands 51 nM; under `CCCCC1(c2ccccc2)CC(=O)C(SCc2ccccc2)C(=O)O1` (stereo not drawn) [3-(benzylsulfanyl)-6-butyl-4-hydroxy-6-phenyl-5,6-dihydro-2H-pyran-2-one], 270 nM.

`CC(C)CCC1(c2ccccc2)CC(=O)C(Sc2ccccc2)C(=O)O1` (stereo not drawn) [5,6-Dihydro-4-hydroxy-6-(3-methylbutyl)-6-phenyl-3-(phenylthio)-2H-pyran-2-one] had a concentration for half-maximal inhibition (IC50) of 1400 nM. Still for that read-out and setting: the figure for `O=C1CC(CC2CCCCC2)(c2ccccc2)OC(=O)C1SCc1ccccc1` (stereo not drawn) [6-(Cyclohexylmethyl)-5,6-dihydro-4-hydroxy-6-phenyl-3-[(phenylmethyl)thio]-2H-pyran-2-one] is 137 nM; for `CC(C)CCC1(c2ccccc2)CC(=O)C(SCc2ccccc2)C(=O)O1` (stereo not drawn) [3-(benzylsulfanyl)-4-hydroxy-6-(3-methylbutyl)-6-phenyl-5,6-dihydro-2H-pyran-2-one] it is 98 nM.

Usually IC50 stands for the concentration needed to halve the response being measured. A lower IC50 goes with greater potency.
